# Target: human GPR120 (Homo sapiens (Human), UniProt Q5NUL3)
# Test: FLIPR assay: intracellular calcium in CHO cells expressing human GPR120
# Type: cell-based
# Conditions: FLIPR calcium assay, CHO cells expressing human GPR120, agonist action
# Procedure: All compounds were tested under the FLIPR assay unless otherwise indicated.
# Primers were synthesized in the domains on the opposite sides of the base sequences of the ORFs of the known GPCR and GPR120 in GenBank Accession NOs. […] The base sequences of the primers used are described below. The restriction enzymes, BamHI and EcoRI, recognition sites were introduced for subcloning, respectively.
# As samples for PCR, human small intestine Marathon-ready cDNA (CLONTECH, current corporate name: TaKaRa) and cDMA obtained by reverse transcription of mouse BAT-derived RNA were used for human and mouse GPR120 receptor genes, respectively.
# Using KOD Plus (TOYOBO) for PCR, 30 cycles of 94° C. for 2 minutes, 94° C. for 15 seconds, 55° C. for 30 seconds and 68° C. for 1 minute were carried out to effect reaction, followed by addition of 0.5 units of ExTaq (TaKaRa) and incubation at 72° C. for 10 minutes to carry out A-addition reaction to terminals. For mouse PCR, 35 cycles were carried out on the condition of a final DMSO concentration of 2%.
# Cloning of amplified PCR products was carried out using pCR2.1-TOPO TA cloning kit (Invitrogen). For verification of base sequences, electrophoresis was carried out using BigDye Terminator Cycle Sequencing Ready Reaction Kit Ver.
# The GPR120 receptor genes cloned into pCR2.1-TOPO vectors, into which the restriction enzymes, BamHI and EcoRI, recognition sites were introduced, were excised from the vectors by the enzymes and subcloned into the BamHI and EcoRI recognition sites of eukaryotic expression vector EF1/V5-His B (Invitrogen).
# Test 2: Production of Expression Cells
# Using Lipofectamine 2000 (Invitrogen), cDNA of GPR120 receptor was transfected into CHO/NFAT-BLA cells, and drug-resistant cells were isolated to obtain GPR120 stable expression strains. The GPR120-expressed CHO cells were cultured in DMEM/F12 medium containing 10% fetal bovine serum, 100 units/ml penicillin, 0.1 mg/ml streptomycin sulfate, 250 μg/ml Zeocin, 500 μg/mL Geneticin and 15 mM HEPES.
# Test 3: Measurement of Intracellular Calcium Concentration
# To the cells was added the test compound diluted with HBSS solution containing 20 mM HEPES and 2.5 mM probenecid. Variations in the intracellular calcium concentration were measured by Fluorescence Imaging Plate Reader (FLIPR; Molecular Devices) to examine the agonist action, and EC50 values were calculated. […]
# Chain of human GPR120 (Q5NUL3 whole entry): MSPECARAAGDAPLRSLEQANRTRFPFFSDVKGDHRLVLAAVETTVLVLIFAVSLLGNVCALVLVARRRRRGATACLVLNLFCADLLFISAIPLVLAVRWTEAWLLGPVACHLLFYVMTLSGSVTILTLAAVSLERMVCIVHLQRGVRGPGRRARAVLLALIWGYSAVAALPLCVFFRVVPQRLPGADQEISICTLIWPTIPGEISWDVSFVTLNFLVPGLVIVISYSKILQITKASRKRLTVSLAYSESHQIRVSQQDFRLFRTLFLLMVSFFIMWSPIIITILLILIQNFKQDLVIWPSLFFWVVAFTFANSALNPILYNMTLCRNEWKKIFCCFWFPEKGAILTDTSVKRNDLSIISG
row,Compound,EC50 [nM]
1,O=C(O)CC1CCC2(CC1)CCN(c1cc(C(F)(F)F)ccc1CO)CC2 [Example 73],3170
2,Cc1cc(C)c(Cl)c(N2CCC3(CCC(CC(=O)O)CC3)CC2)c1 [Example 43],2520
3,O=C(O)CC1CCC2(CC1)CCN(c1cc(C(F)(F)F)ccc1C(F)(F)F)CC2 [Example 21],3270
4,Cc1cccc(N2CCC3(CCC(CC(=O)O)CC3)CC2)c1 [Example 70],2950
5,CCc1cc(CC)cc(N2CCC3(CCC(CC(=O)O)CC3)CC2)c1 [Example 44],2580
6,COc1ccc(Cl)cc1N1CCC2(CCC(CC(=O)O)CC2)CC1 [Example 14],3100
7,"O=C(O)CCCC1CCC2(CC1)CCN(c1cc(OC3CCC3)ccc1F)CC2 [Example 83, 4-(3-(5-Cyclobutoxy-2-fluorophenyl)-3-azaspiro[5.5]undecan-9-yl)butanoic acid]",791
8,CC1(C)Cc2cc(Cl)cc(N3CCC4(CCC(CC(=O)O)CC4)CC3)c2O1 [Example 11],2850
9,CN(C)c1cccc(N2CCC3(CCC(CC(=O)O)CC3)CC2)c1 [Example 69],2940
10,"FC(F)(F)Oc1ccc(Cl)c(N2CCC3(CCC(Cc4nn[nH]n4)CO3)CC2)c1 (racemic) [Example 92, 3-((2H-tetrazol-5-yl)methyl)-9-(2-chloro-5-(trifluoromethoxy)phenyl)-1-oxa-9-azaspiro[5.5]undecane]",2630
11,Cc1cccnc1Oc1ccc(C#N)c(N2CCC3(CCC(CC(=O)O)CC3)CC2)c1 [Example 79],6570
12,CC(C)(C)c1cc(N2CCC3(CCC(CC(=O)O)CC3)CC2)cc(C(F)(F)F)c1 [Example 23],3750
13,COc1cc(Cl)cc(N2CCC3(CC2)CC(CC(=O)O)CO3)c1 (stereo not drawn) [Example 102],8100
14,O=C(O)CC1CCC2(CC1)CCN(c1cc(F)ccc1C(F)F)CC2 [Example 12],2420
15,COc1cc(C)cc(N2CCC3(CCC(CC(=O)O)CC3)CC2)c1 [Example 72],3060
16,O=C(O)C[C@@H]1CCC2(CCN(c3cc(OC4CCC4)ccc3F)CC2)OC1 [Example 100],4280
17,COCCOc1cc(Cl)cc(N2CCC3(CCC(CC(=O)O)CC3)CC2)c1 [Example 75],3630
18,O=C(O)CC1CCC2(CC1)CCN(c1cc(C(F)(F)F)ccn1)CC2 [Example 33],3060
19,"NCCC1CCC2(CC1)CCN(c1cc(OC(F)(F)F)ccc1Cl)CC2 [Example 90, 2-(3-(2-chloro-5-(trifluoromethoxy)phenyl)-3-azaspiro[5.5]undecan-9-yl)ethanamine]",5610
20,Cc1cc(C#N)cc(N2CCC3(CCC(CC(=O)O)CC3)CC2)c1 [Example 71],2960
21,Cc1cc(Cl)cc(N2CCC3(CCC(CC(=O)O)CC3)CC2)c1C#N [Example 40],2540
22,"CC1CC(CC(=O)O)CCC12CCN(c1cc(OC(F)(F)F)ccc1Cl)CC2 (single isomer, unassigned) [Example 89c, 2-(3-(2-Chloro-5-(trifluoromethoxy)phenyl)-7-methyl-3-azaspiro[5.5]undecan-9-yl)acetic acid]",2490
23,O=C(O)CC1CCC2(CC1)CCN(c1cc(C(F)F)cc(C(F)F)n1)CC2 [Example 27],2990
24,"CC1CC(CC(=O)O)CCC12CCN(c1cc(OC(F)(F)F)ccc1Cl)CC2 (single isomer, unassigned) [Example 89b, 2-(3-(2-Chloro-5-(trifluoromethoxy)phenyl)-7-methyl-3-azaspiro[5.5]undecan-9-yl)acetic acid]",3130
25,COCCOc1ccc(Cl)c(N2CCC3(CCC(CC(=O)O)CC3)CC2)c1 [Example 80],6970
26,O=C(O)CC1CCC2(CC1)CCN(c1cc(C(F)F)cc(C(F)F)c1)CC2 [Example 22],3010
27,Cc1cc(F)cc(N2CCC3(CCC(CC(=O)O)CC3)CC2)c1Cl [Example 68],2860
28,"O=C(O)CCC1CCC2(CC1)CCN(c1cc(OC3CCC3)ccc1F)CC2 [Example 82, 3-(3-(5-Cyclobutoxy-2-fluorophenyl)-3-azaspiro[5.5]undecan-9-yl)propanoic acid]",1260

# The next lines start with the values.
row,EC50 [nM],Compound
1,431,N#Cc1ccc(OC(F)(F)F)cc1N1CCC2(CCC(CC(=O)O)CC2)CC1 [Example 35]
2,1330,N#Cc1ccc(OC2CCC2)cc1N1CCC2(CCC(CC(=O)O)CC2)CC1 [Example 57]
3,1220,CC(C)Oc1cc(OC(F)(F)F)cc(N2CCC3(CCC(CC(=O)O)CC3)CC2)c1 [Example 56]
4,1800,O=C(O)CC1CCC2(CC1)CCN(c1cc(Cl)cc(F)c1F)CC2 [Example 39]
5,900,"O=C(O)CC1CCC2(CC1)CCN(c1cc(C(F)(F)F)ccc1Cl)CC2 [Example 2, 2-(3-(2-chloro-5-(trifluoromethyl)phenyl)-3-azaspiro[5.5]undecan-9-y)acetic acid]"
6,1700,O=C(O)CC1CCC2(CC1)CCN(c1cc([N+](=O)[O-])ccc1Cl)CC2 [Example 10]
7,617,N#Cc1cc(OC(F)(F)F)cc(N2CCC3(CCC(CC(=O)O)CC3)CC2)c1 [Example 51]
8,2400,COc1cccc(N2CCC3(CCC(CC(=O)O)CC3)CC2)c1 [Example 64]
9,948,Cc1cc(C)cc(N2CCC3(CCC(CC(=O)O)CC3)CC2)c1 [Example 19]
10,2150,O=C(O)CC1CCC2(CC1)CCN(c1cc(F)cc(Cl)c1F)CC2 [Example 38]
11,671,Cc1cc(N2CCC3(CCC(CC(=O)O)CC3)CC2)cc(C(F)(F)F)c1 [Example 34]
12,2320,Cc1ccc(F)c(N2CCC3(CCC(CC(=O)O)CC3)CC2)c1 [Example 63]
13,530,CC(C)Oc1ccc(Cl)c(N2CCC3(CCC(CC(=O)O)CC3)CC2)c1 [Example 18]
14,2170,Cc1cc(F)c(Cl)c(N2CCC3(CCC(CC(=O)O)CC3)CC2)c1 [Example 37]
15,1100,"O=C(O)CC1CCC2(CC1)CCN(c1cc(OC3CCCC3)ccc1Cl)CC2 [Example 5, 2-(3-(2-chloro-5-(cyclopentyloxy)phenyl)-3-azaspiro[5.5]undecan-9-yl)acetic acid]"
16,750,"O=C(O)C[C@@H]1CCC2(CCN(c3cc(OC(F)(F)F)ccc3F)CC2)OC1 (single isomer, unassigned) [Example 93b, (R) or (S) 2-(9-(2-fluoro-5-(trifluoromethoxy)phenyl)-1-oxa-9-azaspiro[5.5]undecan-3-yl)acetic acid]"
17,1290,O=C(O)CC1CCC2(CCN(c3cc(OC(F)(F)F)ccc3Cl)CC2)OC1 (stereo not drawn) [Example 97]
18,377,Cc1cc(OC(F)(F)F)cc(N2CCC3(CCC(CC(=O)O)CC3)CC2)c1 [Example 48]

row,EC50 [nM],Compound
1,869,O=C(O)CC1CCC2(CC1)CCN(c1cc(OC3CC3)ccc1Cl)CC2 [Example 55]
2,449,COc1cc(OC(F)(F)F)cc(N2CCC3(CCC(CC(=O)O)CC3)CC2)c1 [Example 49]
3,1220,O=C(O)CC1CCC2(CC1)CCN(c1cc(F)cc(C(F)(F)F)c1)CC2 [Example 31]
4,2150,O=C(O)CC1CCC2(CC1)CCN(c1cc(C(F)(F)F)cc(C(F)(F)F)c1)CC2 [Example 32]
5,1300,"O=C(O)C[C@@H]1CCC2(CCN(c3cc(OC(F)(F)F)ccc3F)CC2)OC1 (single isomer, unassigned) [Example 93a, (R) or (S) 2-(9-(2-fluoro-5-(trifluoromethoxy)phenyl)-1-oxa-9-azaspiro[5.5]undecan-3-yl)acetic acid]"
6,1440,Cc1ccc(C)c(N2CCC3(CCC(CC(=O)O)CC3)CC2)c1 [Example 58]
7,749,Cc1ccc(C(F)(F)F)cc1N1CCC2(CCC(CC(=O)O)CC2)CC1 [Example 42]
8,1670,COc1ccc(Cl)c(N2CCC3(CCC(CC(=O)O)CC3)CC2)c1 [Example 8]
9,1350,O=C(O)CCC1CCC2(CC1)CCN(c1cc(OC3CCC3)ccc1Cl)CC2 [Example 84]
10,2360,N#Cc1ccc(F)cc1N1CCC2(CCC(CC(=O)O)CC2)CC1 [Example 17]
11,878,O=C(O)CC1CCC2(CC1)CCN(c1cc(Cl)cc(Cl)c1)CC2 [Example 30]
12,1490,O=C(O)CC1CCC2(CC1)CCN(c1cc(OC(F)(F)F)cc(C(F)(F)F)c1)CC2 [Example 59]
13,1170,Cc1cc(Cl)cc(N2CCC3(CCC(CC(=O)O)CC3)CC2)c1 [Example 45]
14,330,O=C(O)CC1CCC2(CC1)CCN(c1cc(OC3CCC3)ccc1Cl)CC2 [Example 47]
15,2140,Cc1ccc(C#N)c(N2CCC3(CCC(CC(=O)O)CC3)CC2)c1 [Example 13]
16,2260,O=C(O)CCCC1CCC2(CC1)CCN(c1cc(OC3CCC3)ccc1Cl)CC2 [Example 87]
17,1900,O=C(O)CC1CCC2(CCN(c3cccc(OC(F)(F)F)c3)CC2)OC1 (stereo not drawn) [Example 95]

# Source: patent US9708270B2, “Substituted spiropiperidinyl compounds useful as GPR120 agonists” (Merck Sharp & Dohme Corp., priority 2012, dated 2017)
